According to ChEMBL document CHEMBL1212711, “Mechanistic and functional insights into fatty acid activation in Mycobacterium tuberculosis” (Nat Chem Biol, 2009):
Activity calls are given as the source filed them. The rule behind the calls is not given here.

Key:
[1] = test system: Mycobacterium tuberculosis H37Rv; test: Activity at Mycobacterium tuberculosis H37Rv FAAL28 deletion mutant assessed as conversion of lauroyl-AMP to lauryl-CoA by radio-TLC assay
[2] = test system: Mycobacterium tuberculosis H37Rv; test: Activity at Mycobacterium tuberculosis H37Rv FACL19 AS mutant containing 15 amino acid stretch of alanine and serine residues assessed as acy-CoA formation by radio-TLC assay
[3] = test system: Mycobacterium tuberculosis H37Rv; test: Selectivity of Mycobacterium tuberculosis H37Rv FAAL28 deletion mutant over wild type FACL1
[4] = test system: Mycobacterium tuberculosis H37Rv; test: Activity at Mycobacterium tuberculosis H37Rv FACL19 i mutant containing FAAL28 (342-372) residues instead of FACL6 (362-376) residues assessed as acy-CoA formation by radio-TLC assay

SMILES: CC(C)(COP(=O)(O)OP(=O)(O)OC[C@H]1O[C@@H](n2cnc3c(N)ncnc32)[C@H](O)[C@@H]1OP(=O)(O)O)[C@@H](O)C(=O)NCCC(=O)NCCS [COENZYME_A]
- kcat [1]: 19500 s⁻¹
- Activity [2]: inactive
- fold change (FC) [3]: 10
- Activity [4]: inactive
